Structures can show the parent of a compound that is named as a salt. Active and inactive are the calls of the source. No cut-off for these calls is given here.
Tests used:
[1] = test system: HepG2; assay: Cytotoxicity against adriamycin-resistant human HepG2 cells assessed as growth inhibition after 72 hrs by MTT assay; assay type: functional, cell-based; settings: HepG2, 72 h
[2] = test system: HepG2; assay: Cytotoxicity against human HepG2 cells assessed as growth inhibition after 72 hrs by MTT assay; assay type: functional, cell-based; settings: HepG2, 72 h
[3] = test system: K562; assay: Cytotoxicity against human K562 cells assessed as growth inhibition after 72 hrs by MTT assay; assay type: functional, cell-based; settings: K562, 72 h
[4] = test system: MDA-MB-231; assay: Cytotoxicity against human MDA-MB-231 cells assessed as growth inhibition after 72 hrs by MTT assay; assay type: functional, cell-based; settings: MDA-MB-231, 72 h
[5] = test system: MCF7; assay: Cytotoxicity against human MCF7 cells assessed as growth inhibition after 72 hrs by MTT assay; assay type: functional, cell-based; settings: MCF7, 72 h
[6] = Cytotoxicity against KM mouse splenic lymphocytes assessed as growth inhibition after 72 hrs by MTT assay; settings: Splenic lymphocyte
[7] = target: Tubulin (Homo sapiens) (UniProt P68371+Q9H4B7+P0DPH7+P68366+Q13509+Q71U36+P04350+Q3ZCM7+P07437+P68363+Q9BQE3+Q6PEY2+Q13885+Q9BVA1+Q9BUF5); assay: Inhibition of tubulin polymerization (unknown origin) after 90 mins; assay type: protein-complex assay
[8] = Cytotoxicity against KM mouse splenic lymphocytes assessed as growth inhibition up to 50 uM after 72 hrs by MTT assay; settings: splenic lymphocyte
[9] = test system: HepG2; assay: Antimitotic activity in human HepG2 cells assessed as cell morphological changes at 18 nM after 12 hrs by DAPI staining-based laser scanning confocal microscopic analysis; assay type: functional

Work on `CC[C@]1(O)C[C@@H]2CN(CCc3c([nH]c4ccccc34)[C@@](C(=O)OC)(c3cc4c(cc3OC)N(C)[C@H]3[C@@](O)(C(=O)OC)[C@H](OC(C)=O)[C@]5(CC)C=CCN6CC[C@]43[C@@H]65)C2)C1` [VINBLASTINE SULFATE] yielded an IC50 [1] of 0.056 µM, an IC50 [2] of 0.019 µM and an IC50 [3] of 0.016 µM. It also gave an IC50 [4] of 0.0083 µM and an IC50 [5] of 0.007 µM.
Compound `CC1(C)C(/C=C/c2cccc(C(F)(F)F)c2)=Nc2ccccc21` has an IC50 [6] of 36.3 µM, an IC50 [1] of 9.54 µM and an IC50 [2] of 11.7 µM. It also gave an IC50 [3] of 9.83 µM, an IC50 [4] of 3.2 µM and an IC50 [5] of 2.13 µM.
Compound `CCC1=C[C@@H]2CN3CCc4c([nH]c5ccccc45)[C@@](C(=O)OC)(C2)[C@@H]13` has an IC50 [1] of over 50 µM, an IC50 [2] of over 50 µM and an IC50 [3] of over 50 µM. It also gave an IC50 [4] of over 50 µM and an IC50 [5] of over 50 µM.
In the case of `CCN(CC)c1ccc(/C=C/C2=Nc3ccccc3C2(C)C)cc1`, the IC50 [1] is reported as 15.1 µM, the IC50 [2] is reported as 22.9 µM and the IC50 [3] is reported as 28.2 µM. For the same compound, the IC50 [4] was 16.1 µM and the IC50 [5] was 11.8 µM.
Work on `Cc1cccc(/C=C/C2=Nc3ccccc3C2(C)C)c1` yielded an IC50 [1] of 10.2 µM, an IC50 [2] of 16.4 µM and an IC50 [3] of 20.7 µM. The IC50 [4] was 10.1 µM and the IC50 [5] was 8.31 µM.
In the case of `COc1cccc(/C=C/C2=Nc3ccccc3C2(C)C)c1`, the inhibition [7] is reported as “Active”, the IC50 [1] is reported as 9.94 µM and the IC50 [2] is reported as 11.4 µM. It also gave an IC50 [3] of 9.64 µM, an IC50 [4] of 3.1 µM and an IC50 [5] of 2.19 µM.
Compound `CC[C@]1(O)C[C@@H]2CN(CCc3c([nH]c4ccccc34)[C@@](C(=O)OC)(c3cc4c(cc3OC)N(C)[C@H]3[C@@](O)(C(=O)OC)[C@H](OC(C)=O)[C@]5(CC)C=CCN6CC[C@]43[C@@H]65)C2)C1` [VINBLASTINE] has an IC50 [6] of 0.0016 µM.
With `COc1ccc2[nH]cc(/C=C/C3=Nc4ccccc4C3(C)C)c2c1` the IC50 [1] was 23.4 µM, the IC50 [2] was 18.5 µM and the IC50 [3] was 16.9 µM. It also gave an IC50 [4] of 14 µM and an IC50 [5] of 7.05 µM.
For `CN(C)c1ccc(/C=C/C2=Nc3ccccc3C2(C)C)cc1`, the IC50 [1] was 22.1 µM, the IC50 [2] was 17.9 µM and the IC50 [3] was 25.7 µM. It also gave an IC50 [4] of 15.1 µM and an IC50 [5] of 8.1 µM.
With `CC1(C)C(/C=C/c2ccc(C(F)(F)F)cc2)=Nc2ccccc21` the inhibition [7] was “Active”, the IC50 [6] was 35.4 µM and the IC50 [1] was 7.91 µM. For the same compound, the IC50 [2] was 9.49 µM, the IC50 [3] was 8.87 µM and the IC50 [4] was 2.63 µM. It also gave an IC50 [5] of 1.45 µM.
`CC1(C)C(/C=C/c2c[nH]c3c([N+](=O)[O-])cccc23)=Nc2ccccc21` showed an IC50 [1] of 4 µM, an IC50 [2] of 16.8 µM and an IC50 [3] of 21 µM. For the same compound, the IC50 [4] was 26.1 µM and the IC50 [5] was 11.2 µM.
`Cc1ccc2[nH]cc(/C=C/C3=Nc4ccccc4C3(C)C)c2c1` gave an IC50 [1] of 6.13 µM, an IC50 [2] of 18.7 µM and an IC50 [3] of 21.2 µM. The IC50 [4] was 14.6 µM and the IC50 [5] was 15.9 µM.
`Cc1ccc(/C=C/C2=Nc3ccccc3C2(C)C)cc1` gave an IC50 [1] of over 50 µM, an IC50 [2] of 43.9 µM and an IC50 [3] of 26.1 µM. For the same compound, the IC50 [4] was 22 µM and the IC50 [5] was 13.2 µM.
In the case of `COc1cc(/C=C/C2=Nc3ccccc3C2(C)C)cc(OC)c1OC`, the Activity [8] is reported as “Non-toxic”, the IC50 [1] is reported as 10.8 µM and the IC50 [2] is reported as 12.7 µM. The IC50 [3] was 15.3 µM, the IC50 [4] was 4.13 µM and the IC50 [5] was 1.76 µM.
`CC1(C)C(/C=C/c2c[nH]c3cc(Cl)ccc23)=Nc2ccccc21` gave an IC50 [1] of 9.98 µM, an IC50 [2] of 18.1 µM and an IC50 [3] of 13 µM. For the same compound, the IC50 [4] was 20.1 µM and the IC50 [5] was 19 µM.
With `CC1(C)C(/C=C/c2c[nH]c3ccccc23)=Nc2ccccc21` the Activity [8] was “Non-toxic”, the IC50 [1] was 12.2 µM and the IC50 [2] was 17.9 µM. For the same compound, the IC50 [3] was 23 µM, the IC50 [4] was 11.6 µM and the IC50 [5] was 3.88 µM.
Work on `COc1ccc(/C=C/C2=Nc3ccccc3C2(C)C)cc1` yielded an IC50 [1] of 47 µM, an IC50 [2] of 20.8 µM and an IC50 [3] of 19.9 µM. The IC50 [4] was 15.6 µM and the IC50 [5] was 10.4 µM.
With `COc1ccc(/C=C/C2=Nc3ccccc3C2(C)C)cc1OC` the IC50 [1] was 28.6 µM, the IC50 [2] was 35 µM and the IC50 [3] was 37.1 µM. It also gave an IC50 [4] of 9.11 µM and an IC50 [5] of 12 µM.
In the case of `CC1(C)C(/C=C/c2c[nH]c3ccc(Br)cc23)=Nc2ccccc21`, the IC50 [1] is reported as 9.1 µM, the IC50 [2] is reported as 21.5 µM and the IC50 [3] is reported as 20.1 µM. For the same compound, the IC50 [4] was 21.8 µM and the IC50 [5] was 21 µM.
`Cc1[nH]c2ccccc2c1/C=C/C1=Nc2ccccc2C1(C)C` gave an IC50 [1] of 4.41 µM, an IC50 [2] of 15.4 µM and an IC50 [3] of 22.7 µM. For the same compound, the IC50 [4] was 32.6 µM and the IC50 [5] was 6.25 µM.
`CCC12C=CCN3CC[C@@]4(c5ccc(OC)cc5N(C)[C@H]4[C@@](O)(C(=O)OC)[C@@H]1OC(C)=O)[C@@H]32` (stereo partly specified) [VINDOLINE] gave an IC50 [1] of over 50 µM, an IC50 [2] of over 50 µM and an IC50 [3] of over 50 µM. The IC50 [4] was over 50 µM and the IC50 [5] was over 50 µM.
`CC1(C)C(/C=C/c2c[nH]c3cc(F)ccc23)=Nc2ccccc21` gave an IC50 [1] of 14.9 µM, an IC50 [2] of 9.87 µM and an IC50 [3] of 20.2 µM. The IC50 [4] was 24.4 µM and the IC50 [5] was 3.47 µM.
For `CC1(C)C(/C=C/c2ccccc2[N+](=O)[O-])=Nc2ccccc21`, the IC50 [1] was 9.74 µM, the IC50 [2] was 12.7 µM and the IC50 [3] was 13 µM. The IC50 [4] was 3.77 µM and the IC50 [5] was 1.75 µM.
In the case of `CC1(C)C(/C=C/c2ccc(Br)cc2)=Nc2ccccc21`, the IC50 [1] is reported as 9.92 µM, the IC50 [2] is reported as 15.6 µM and the IC50 [3] is reported as 20.2 µM. For the same compound, the IC50 [4] was 5.16 µM and the IC50 [5] was 5.26 µM.
In the case of `COc1ccccc1/C=C/C1=Nc2ccccc2C1(C)C`, the IC50 [1] is reported as 12.6 µM, the IC50 [2] is reported as 22 µM and the IC50 [3] is reported as 22.9 µM. The IC50 [4] was 10.7 µM and the IC50 [5] was 5.13 µM.
In the case of `CC[C@]1(O)C[C@@H]2CN(CCc3c([nH]c4ccccc34)[C@@](C(=O)OC)(c3cc4c(cc3OC)N(C)[C@H]3[C@@](O)(C(=O)OC)[C@H](OC(C)=O)[C@]5(CC)C=CCN6CC[C@]43[C@@H]65)C2)C1`, the inhibition [7] is reported as “Active” and the Activity [9] is reported as “Active”.
Work on `CC1(C)C(/C=C/c2ccc([N+](=O)[O-])cc2)=Nc2ccccc21` yielded an IC50 [6] of 20.7 µM, an IC50 [1] of 2.49 µM and an IC50 [2] of 5.55 µM. For the same compound, the IC50 [3] was 4.32 µM, the IC50 [4] was 2.01 µM and the IC50 [5] was 0.96 µM.
For `Cc1c(/C=C/C2=Nc3ccccc3C2(C)C)c2ccccc2n1C`, the IC50 [1] was 3.34 µM, the IC50 [2] was 35.9 µM and the IC50 [3] was 23.2 µM. It also gave an IC50 [4] of 38.5 µM and an IC50 [5] of 17.1 µM.
With `CC1(C)C(/C=C/c2c[nH]c3cccc(C#N)c23)=Nc2ccccc21` the Activity [8] was “Non-toxic”, the IC50 [1] was 3.18 µM and the IC50 [2] was 9.22 µM. The IC50 [3] was 15.8 µM, the IC50 [4] was 18.8 µM and the IC50 [5] was 8.95 µM.
In the case of `Cn1cc(/C=C/C2=Nc3ccccc3C2(C)C)c2ccccc21`, the IC50 [1] is reported as 18.7 µM, the IC50 [2] is reported as 39.4 µM and the IC50 [3] is reported as 20.8 µM. The IC50 [4] was 22.4 µM and the IC50 [5] was 12.6 µM.

Source: ChEMBL document CHEMBL2434943, “Elaboration of thorough simplified vinca alkaloids as antimitotic agents based on pharmacophore similarity” (Eur J Med Chem, 2013)
